Test results taken from patent US20090069623A1, “METHODS AND COMPOSITIONS FOR TREATMENT OR PREVENTION OF RADIATION-INDUCED FIBROSIS” (Virginia Commonwealth University Intellectual Property …, priority 2007, published 2009).

What was measured:
Type in all cases: cell-based, human
[1] = system: CTGF, fibronectin (FN), collagen type IV (Col IV) mRNA; experiment: RT-PCR of mRNA expression in irradiated HFL-1 cells treated with simvastatin; conditions: simvastatin pretreatment 6 hours, 10 Gy, 20 hours, FIG. 8A
Method: (§1) For statin treatment experiments, cells were grown overnight in 35 mm plates (6-well plates were also used in some studies) to form a 75-80% confluent monolayer. The cells were then washed with PBS, and the media was changed to SFM (800 μL).
RT-PCR analysis of CTGF, COL-IV, FN and hβ2M. […] One microgram of purified total RNA was used for RT-PCR analysis using the ThermoScript RT-PCR System (Invitrogen, Inc.) according to the protocol of the manufacturer. The sequences of the forward and reverse primers are as follows: CTGF forward primer (SEQ ID NO 1) 5′-[…]-3′, CTGF reverse primer (SEQ ID NO 2) 5′-[…]-3′; COL-IV forward primer (SEQ ID NO 3) 5′-[…]-3′, COL-IV reverse primer (SEQ ID NO 4) 5′-[…]-3′; FN forward primer (SEQ ID NO 5) 5′-[…]-3′, FN reverse primer (SEQ ID NO 6) 5′-[…]-3′; hβ2M forward primer (SEQ ID NO 7) 5′-[…]-3′; hβ2M reverse primer (SEQ ID NO 8) 5′-[…]-3′. The CTGF PCR product is 242 bp in length, the COL-IV PCR product is 138 bp, the FN PCR product is 203 bp, and hβ2M PCR product is 278 bp. For PCR amplification, 25 cycles were performed for the amplification of CTGF, COL-IV, FN and hβ2M (denaturation: 94° C., 45 sec; annealing: 55° C., 45 sec; polymerization: 72° C., 1 min). Amplified products were separated by electrophoresis on a 1.0% agarose gel, and DNA was visualized by ethidium bromide staining.

CTGF, fibronectin [2] = experiment: Western blot of irradiated HFL-1 cells treated with HMG-CoA inhibitors; conditions: simvastatin pretreatment 6 hours, 5 Gy, three days, FIG. 8B
Method: as §1
Harvesting Culture Media and Cell Lystates. For analysis of extracellular CTGF, fibronectin, and α-tubulin, cell culture media was collected, centrifuged to remove cellular debris, aliquoted, and frozen at −70° C. until ready for use. For analysis of intracellular CTGF, fibronectin, and α-tubulin, cell lysates were harvested using 200 μL of HBSST lysis buffer (HBSS containing 1 mM MgSO4, 1 mM CaCl2, 4 mM NaHCO3, 0.5% Triton X-100, protease inhibitor cocktail). Cellular debris was removed by centrifugation.
Western blot analysis of HFL-1 whole cell proteins. […] Primary antibodies for CTGF and fibronectin were diluted at 1:600 and were incubated at 4° C. overnight with shaking. Primary antibodies for α-tubulin were diluted at 1:4,000 and were incubated at 4° C. overnight with shaking. Corresponding secondary antibodies were diluted at 1:6,000 and were incubated at room temperature for 1 hour with shaking. After washing the blot, the antibodies were detected by the enhanced chemiluminescence method (PerkinElmer Life Sciences Inc.).
Cells were harvested, and cell lysates were separated by SDS-PAGE. The separated proteins were then transferred to nitrocellulose, and Western immunoblotting was performed with antibodies specific for CTGF, fibronectin, and α-tubulin. […] As a control for protein loading, α-tubulin expression in HFL-1 cells was also determined.
Cells were harvested, and cell lysates were separated by SDS-PAGE. The separated proteins were then transferred to nitrocellulose, and Western immunoblotting was performed with antibodies specific for CTGF, fibronectin, and α-tubulin. FIG. 8C is a Western blot of HFL-1 cells exposed to radiation and treated with HMG-CoA inhibitors.

[3] = system: CTGF, fibronectin (FN), collagen type IV (Col IV) mRNA; experiment: RT-PCR of TGF-β1-induced mRNA expression in HDF cells treated with simvastatin; conditions: 10 ng/ml TGF-β1 for 20 hours, FIG. 10A
Method: Cell Culture and Treatment. Normal human fetal lung fibroblasts (HFL-1) were purchased from the American Type Culture Collection (ATCC Number: CCL-153) and cultured in Ham's F12K medium (American Type Culture Collection) supplemented with 2 mM L-glutamine adjusted to contain 1.5 g/L sodium bicarbonate and 10% fetal bovine serum. Cells were maintained in humidified 5% CO2 at 37° C. Human dermal fibroblasts (HDF), derived from the dermis of normal human adult skin, were purchased from Invitrogen, Inc. and cultured in Medium-106 (Invitrogen, Inc., Catalogue No. M-106-500) containing LSGS Kit (Invitrogen, Inc., Catalogue No. S-003-K) prior to use. After reaching 75-80% confluence, the medium was changed to serum free medium (SFM) for irradiation with different dose 1Gy, 2.5Gy, 5Gy, 7.5Gy and 10 Gy by using ^137Se. Alternatively, cells were treated with 5 ng/ml TGF-β1 (Sigma-Aldrich, Inc., Catalogue No. T7039) to stimulate CTGF production. The cells were then kept for 3 days in humidified 5% CO2 at 37° C. and subjected to Western immunoblot.^1 ^1What are the culture conditions (e.g., media) for M12 cells used in FIG. 3?
RT-PCR analysis of CTGF, COL-IV, FN and hβ2M. […]
The ability of statins to inhibit TGF-β1-mediated induction of CTGF, fibronectin, and collagen type IV was assessed in HDF cells. […]

CTGF, fibronectin [4] = experiment: Western blot of HDF cells treated with TGF-β1 and simvastatin; conditions: 10 ng/ml TGF-β1 plus simvastatin, three days, FIG. 10B
Method: Cell Culture and Treatment. Normal human fetal lung fibroblasts (HFL-1) were purchased from the American Type Culture Collection (ATCC Number: CCL-153) and cultured in Ham's F12K medium (American Type Culture Collection) supplemented with 2 mM L-glutamine adjusted to contain 1.5 g/L sodium bicarbonate and 10% fetal bovine serum. Cells were maintained in humidified 5% CO2 at 37° C. Human dermal fibroblasts (HDF), derived from the dermis of normal human adult skin, were purchased from Invitrogen, Inc. and cultured in Medium-106 (Invitrogen, Inc., Catalogue No. M-106-500) containing LSGS Kit (Invitrogen, Inc., Catalogue No. S-003-K) prior to use. […]
Harvesting Culture Media and Cell Lystates. For analysis of extracellular CTGF, fibronectin, and α-tubulin, cell culture media was collected, centrifuged to remove cellular debris, aliquoted, and frozen at −70° C. until ready for use. […]
Western blot analysis of HFL-1 whole cell proteins. […] After washing the blot, the antibodies were detected by the enhanced chemiluminescence method (PerkinElmer Life Sciences Inc.).
The separated proteins were then transferred to nitrocellulose, and Western immunoblotting was performed with antibodies specific for CTGF, fibronectin, and α-tubulin. […] As a control for protein loading, α-tubulin expression in HFL-1 cells was also determined.

CCC(C)(C)C(=O)O[C@H]1C[C@@H](C)C=C2C=C[C@H](C)[C@H](CC[C@@H]3C[C@@H](O)CC(=O)O3)[C@H]21 [simvastatin, 2,2-dimethyl-butanoic acid(1S,3R,7S,8S,8aR)-1,2,3,7,8,8a-hexahydro-3,7-dimethyl-8-[2-[(2R,4R)-tetrahydro-4-hydroxy-6-oxo-2H-pyran-2-yl]ethyl]-1-naphthalenylester]
expression of CTGF, FN, and Col-IV mRNA [1]: decrease in the expression of CTGF, FN, and Col-IV mRNA | fibronectin protein expression (CTGF, fibronectin [2]): decrease in protein expression or fibronectin | CTGF, FN, and Col IV mRNA expression ([3]; 0.1 μM simvastatin): reduction in CTGF, FN, and Col IV mRNA expression | CTGF, FN, and Col IV mRNA expression ([3]; increasing concentration of simvastatin): reduction in CTGF, FN, and Col IV mRNA expression became more pronounced | fibronectin protein expression (CTGF, fibronectin [4]): decrease in protein expression of fibronectin
